The text below walks through data of US9718804B2, “GSK-3 inhibitors” (BRISTOL-MYERS SQUIBB COMPANY, priority 2013, dated 2017).

Read-outs that look alike come from different tables or passages of the source.

For assay [1], the system named is pTau. The experiment in a line: pTau assay (no method described). Format: cell-based.
For assay [2], the target named is GSK3α (Homo sapiens, UniProt P49840). Briefly: GSK3α kinase assay (Caliper LabChip, fluoresceinated peptide substrate). Type of assay: biochemical. The protocol:
(§1) The kinase assay was performed in V-bottom 384-well plates. […] The reaction was incubated at room temperature for 20 hours and terminated by adding 45 μl of 35 mM EDTA to each sample. The reaction mixture was analyzed on the Caliper LabChip3000 (Caliper, Hopkinton, Mass.) by electrophoretic separation of the unphosphorylated substrate and phosphorylated product. […] Compounds were dissolved at 10 mM in dimethylsulfoxide (DMSO) and evaluated at eleven concentrations. IC50 values were derived by non-linear regression analysis.

Assay [3] addresses GSK3β (Homo sapiens, UniProt P49841). The experiment in a line: GSK3β kinase assay (Caliper LabChip, fluoresceinated peptide substrate). Type of assay: biochemical. The protocol:
as §1

Where [4] appears, read: first value of the cell, 250 pM enzyme, 20 uM ATP, 20 hours at room temperature, read-out: GSK3β/α (nM): GSK3β IC50.
Where [5] appears, read: second value of the cell, 250 pM enzyme, 20 uM ATP, 20 hours at room temperature, read-out: GSK3β/α (nM): GSK3α IC50.

Chain of GSK3β (P49841 whole entry, species assumed): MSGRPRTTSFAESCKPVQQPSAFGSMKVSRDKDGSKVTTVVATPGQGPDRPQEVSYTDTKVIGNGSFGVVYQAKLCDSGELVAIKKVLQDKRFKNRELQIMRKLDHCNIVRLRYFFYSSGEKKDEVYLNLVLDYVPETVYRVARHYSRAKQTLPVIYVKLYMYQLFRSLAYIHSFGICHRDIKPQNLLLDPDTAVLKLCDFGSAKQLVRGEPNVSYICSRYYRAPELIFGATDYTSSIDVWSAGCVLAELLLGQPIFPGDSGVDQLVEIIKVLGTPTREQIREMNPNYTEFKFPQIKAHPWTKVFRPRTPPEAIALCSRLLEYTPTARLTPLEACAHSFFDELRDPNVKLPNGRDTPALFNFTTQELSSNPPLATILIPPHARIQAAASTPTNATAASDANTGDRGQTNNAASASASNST
Chain of GSK3α (P49840 whole entry, species assumed): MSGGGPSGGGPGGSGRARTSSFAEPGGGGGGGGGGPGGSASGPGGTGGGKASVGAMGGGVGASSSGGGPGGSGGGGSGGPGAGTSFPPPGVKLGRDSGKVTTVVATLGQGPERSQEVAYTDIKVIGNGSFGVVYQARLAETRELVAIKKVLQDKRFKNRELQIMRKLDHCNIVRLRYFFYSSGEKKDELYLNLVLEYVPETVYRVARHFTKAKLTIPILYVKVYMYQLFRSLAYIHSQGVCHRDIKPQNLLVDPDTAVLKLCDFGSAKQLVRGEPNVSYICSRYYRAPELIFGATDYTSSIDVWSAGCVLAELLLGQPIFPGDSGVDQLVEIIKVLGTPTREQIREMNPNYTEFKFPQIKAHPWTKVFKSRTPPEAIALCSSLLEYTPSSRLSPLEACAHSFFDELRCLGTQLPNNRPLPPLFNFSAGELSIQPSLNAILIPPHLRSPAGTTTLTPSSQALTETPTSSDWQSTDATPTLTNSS

For the molecule `CC(C)(C)COc1ccncc1NC(=O)c1ccnc(Nc2ccc(C(F)(F)F)cn2)c1` [Example 17, N-(4-(Neopentyloxy)pyridin-3-yl)-2-((5-(trifluoromethyl)pyridin-2-yl)amino)isonicotinamide], the IC50 in assay [1] amounted to 43 nM; in assay [2] it was 0.89 nM; in assay [3] (setting [4]), 1.6 nM.
For `O=C(Nc1cnccc1OCC(F)(F)F)c1ccnc(Nc2ccc(C(F)(F)F)cn2)c1` [Example 18, N-(4-(Trifluoroethoxy)pyridin-3-yl)-2-((5-(trifluoromethyl)pyridin-2-yl)amino)isonicotinamide], the figures for the IC50 in assay [1], in assay [2] and in assay [3] (setting [4]) were 13 nM, 0.42 nM and 0.71 nM, respectively.
The matching figures for `CC(C)Oc1ccncc1NC(=O)c1ccnc(Nc2ccc(C(F)(F)F)cn2)c1` [Example 19, N-(4-(Isopropoxy)pyridin-3-yl)-2-((5-(trifluoromethyl)pyridin-2-yl)amino)isonicotinamide]: 16 nM, 0.55 nM and 1.6 nM.
`C[C@H]1COCCN1c1ccncc1NC(=O)c1ccnc(Nc2ccc(C(F)(F)F)cn2)c1` [Example 20, (S)—N-(4-(3-Methylmorpholino)pyridin-3-yl)-2-((5-(trifluoromethyl)pyridin-2-yl)amino)isonicotinamide]: the IC50 in assay [1] came to 0.66 nM; in assay [2] it was 0.09 nM; in assay [3] (setting [4]) it was 0.1 nM.
The matching figures for `C[C@@H]1COCCN1c1ccncc1NC(=O)c1ccnc(Nc2ccc(C(F)(F)F)cn2)c1` [Example 21, (R)—N-(4-(3-Methylmorpholino)pyridin-3-yl)-2-((5-(trifluoromethyl)pyridin-2-yl)amino)isonicotinamide]: 9.1 nM, 0.28 nM and 0.7 nM.
Taken in the same sequence, the figures for `CC1(C)CN(c2ccncc2NC(=O)c2ccnc(Nc3ccc(C(F)(F)F)cn3)c2)CCO1` [Example 22, N-(4-(2,2-Dimethylmorpholino)pyridin-3-yl)-2-((5-(trifluoromethyl)pyridin-2-yl)amino)isonicotinamide] were 18 nM, 0.31 nM and 0.48 nM.
The matching figures for `O=C(Nc1cnccc1N1CCCCC1)c1ccnc(Nc2ccc(C(F)(F)F)cn2)c1` [Example 23, N-(4-(Piperidin-1-yl)pyridin-3-yl)-2-((5-(trifluoromethyl)pyridin-2-yl)amino)isonicotinamide]: 6.5 nM, 0.15 nM and 0.24 nM.
`O=C(Nc1cnccc1N1CCC(F)(F)CC1)c1ccnc(Nc2ccc(C(F)(F)F)cn2)c1` [Example 24, N-(4-(4,4-Difluoropiperidin-1-yl)pyridin-3-yl)-2-((5-(trifluoromethyl)pyridin-2-yl)amino)isonicotinamide]: the figures for the IC50 in assay [1], in assay [2] and in assay [3] (setting [4]) were 4.6 nM, 0.49 nM and 0.69 nM, respectively.
Regarding `CC(C)(C)COc1ccncc1NC(=O)c1ccnc(Nc2ccc(C#N)cn2)c1` [Example 25, 2-((5-Cyanopyridin-2-yl)amino)-N-(4-(neopentyloxy)pyridin-3-yl)isonicotinamide], the IC50 was found to be 30 nM in assay [1], 2 nM in assay [2] and 4.3 nM in assay [3] (setting [4]).
`Cc1ccncc1NC(=O)c1ccnc(Nc2ccc(C#N)cn2)c1` [Example 26, 2-((5-Cyanopyridin-2-yl)amino)-N-(4-methylpyridin-3-yl)isonicotinamide]: the IC50 in assay [1] was determined as 670 nM; in assay [2] (setting [5]), 8.2 nM; in assay [3], 14 nM.
With `N#Cc1ccc(Nc2cc(C(=O)Nc3cnccc3N3CCCCC3)ccn2)nc1` [Example 27, 2-((5-Cyanopyridin-2-yl)amino)-N-(4-(piperidin-1-yl)pyridin-3-yl)isonicotinamide], the figures for the IC50 in assay [1], in assay [2] and in assay [3] (setting [4]) were 5.2 nM, 0.18 nM and 0.42 nM, respectively.
The matching figures for `CC1(C)CN(c2ccncc2NC(=O)c2ccnc(Nc3ccc(C#N)cn3)c2)CCO1` [Example 28, 2-((5-Cyanopyridin-2-yl)amino)-N-(4-(2,2-dimethylmorpholino)pyridin-3-yl)isonicotinamide]: 16 nM, 0.37 nM and 0.55 nM.
Taken in the same sequence, the figures for `N#Cc1ccc(Nc2cc(C(=O)Nc3cnccc3OCC(F)(F)F)ccn2)nc1` [Example 29, 2-((5-Cyanopyridin-2-yl)amino)-N-(4-(2,2,2-trifluoroethoxy)pyridin-3-yl)isonicotinamide] were 16 nM, 0.62 nM and 0.69 nM.
For `CN(C)S(=O)(=O)c1ccc(Nc2cc(C(=O)Nc3cnccc3OCC(F)(F)F)ccn2)nc1` [Example 30, 2-((5-(N,N-Dimethylsulfamoyl)pyridin-2-yl)amino)-N-(4-(2,2,2-trifluoroethoxy)pyridin-3-yl)isonicotinamide], the IC50 amounted to 24 nM in assay [1], 0.31 nM in assay [2] and 0.5 nM in assay [3] (setting [4]).
Taken in the same sequence, the figures for `O=C(Nc1cnccc1OCC(F)(F)F)c1ccnc(Nc2ccc(Cl)cn2)c1` [Example 31, 2-((5-Chloropyridin-2-yl)amino)-N-(4-(2,2,2-trifluoroethoxy)pyridin-3-yl)isonicotinamide] were 22 nM, 0.3 nM and 0.74 nM.
Regarding `O=C(Nc1cnccc1C1=CCOCC1)c1ccnc(Nc2ccc(C(F)(F)F)cn2)c1` [Example 32, N-(4-(3,6-Dihydro-2H-pyran-4-yl)pyridin-3-yl)-2-((5-(trifluoromethyl)pyridin-2-yl)amino)isonicotinamide], the IC50 in assay [1] amounted to 71 nM; in assay [2], 0.78 nM; in assay [3] (setting [4]), 2.3 nM.
Taken in the same sequence, the figures for `CC1(c2ccncc2NC(=O)c2ccnc(Nc3ccc(C(F)(F)F)cn3)c2)OCCO1` [Example 33, N-(4-(2-Methyl-1,3-dioxolan-2-yl)pyridin-3-yl)-2-((5-(trifluoromethyl)pyridin-2-yl)amino)isonicotinamide] were 0.55 nM, 0.18 nM and 0.29 nM.
The matching figures for `CC(O)c1ccncc1NC(=O)c1ccnc(Nc2ccc(C(F)(F)F)cn2)c1` (stereo not drawn) [Example 34, N-(4-(1-Hydroxyethyl)pyridin-3-yl)-2-((5-(trifluoromethyl)pyridin-2-yl)amino)isonicotinamide]: 37 nM, 1.4 nM and 3.2 nM.
For the molecule `O=C(Nc1cnccc1C1CCOCC1)c1ccnc(Nc2ccc(C(F)(F)F)cn2)c1` [Example 35, N-(4-(Tetrahydro-2H-pyran-4-yl)pyridin-3-yl)-2-((5-(trifluoromethyl)pyridin-2-yl)amino)isonicotinamide], the IC50 in assay [1] was determined as 760 nM; in assay [2] (setting [5]) it was 8.7 nM; in assay [3] it was 16 nM.
Take `O=C(Nc1cnccc1C1=CCCCC1)c1ccnc(Nc2ccc(C(F)(F)F)cn2)c1` [Example 36, N-(4-(Cyclohex-1-en-1-yl)pyridin-3-yl)-2-((5-(trifluoromethyl)pyridin-2-yl)amino)isonicotinamide]: the IC50 in assay [1] is 130 nM; in assay [2] it was 1.4 nM; in assay [3] (setting [4]), 2.9 nM.
Taken in the same sequence, the figures for `CC(=O)c1ccncc1NC(=O)c1ccnc(Nc2ccc(C(F)(F)F)cn2)c1` [Example 37, N-(4-Acetylpyridin-3-yl)-2-((5-(trifluoromethyl)pyridin-2-yl)amino)isonicotinamide] were 130 nM, 1.5 nM and 3.3 nM.
The matching figures for `O=C(Nc1cnccc1C1(O)CCCCC1)c1ccnc(Nc2ccc(C(F)(F)F)cn2)c1` [Example 38, N-(4-(1-Hydroxycyclohexyl)pyridin-3-yl)-2-((5-(trifluoromethyl)pyridin-2-yl)amino)isonicotinamide]: 8.8 nM, 0.71 nM and 1.1 nM.
Regarding `O=C(Nc1cnccc1C1=CCCCO1)c1ccnc(Nc2ccc(C(F)(F)F)cn2)c1` [Example 39, N-(4-(3,4-Dihydro-2H-pyran-6-yl)pyridin-3-yl)-2-((5-(trifluoromethyl)pyridin-2-yl)amino)isonicotinamide], the IC50 in assay [1] came out at 140 nM; in assay [2], 0.93 nM; in assay [3] (setting [4]), 1.2 nM.
Taken in the same sequence, the figures for `O=C(Nc1cnccc1C1OCCO1)c1ccnc(Nc2ccc(C(F)(F)F)cn2)c1` [Example 40, N-(4-(1,3-Dioxolan-2-yl)pyridin-3-yl)-2-((5-(trifluoromethyl)pyridin-2-yl)amino)isonicotinamide] were 3300 nM, 46 nM and 23 nM.
Taken in the same sequence, the figures for `O=C(Nc1cnccc1OCC(F)F)c1ccnc(Nc2ccc(C(F)(F)F)cn2)c1` [Example 42, N-(4-(2,2-Difluoroethoxy)pyridin-3-yl)-2-((5-(trifluoromethyl)pyridin-2-yl)amino)isonicotinamide] were 21 nM, 0.27 nM and 0.49 nM.
Consider `CC1(COc2ccncc2NC(=O)c2ccnc(Nc3ccc(C(F)(F)F)cn3)c2)CC1` [Example 44, N-(4-((1-Methylcyclopropyl)methoxy)pyridin-3-yl)-2-((5-(trifluoromethyl)pyridin-2-yl)amino)isonicotinamide], for which the IC50 was 52 nM in assay [1], 0.33 nM in assay [2] and 1.4 nM in assay [3] (setting [4]).
Taken in the same sequence, the figures for `O=C(Nc1cnccc1C1(F)COC1)c1ccnc(Nc2ccc(C(F)(F)F)cn2)c1` [Example 45, N-(4-(3-Fluorooxetan-3-yl)pyridin-3-yl)-2-((5-(trifluoromethyl)pyridin-2-yl)amino)isonicotinamide] were 150 nM, 11 nM and 17 nM.
